According to ChEMBL document CHEMBL6096630, “Enhancing therapeutic efficacy in homologous recombination-proficient pancreatic cancer via the combination of PARP1-PROTAC and a BRD4 inhibitor” (Bioorg Med Chem, 2024):
Activity calls are given as the source filed them. The calls are words filed in the database; no cut-off is given here.

Legend:
[1] = target: T1, Protein cereblon/Poly [ADP-ribose] polymerase 1 (Homo sapiens, UniProt P09874+Q96SW2); assay: PROTAC activity at CRBN/PARP1 in human BXPC-3 cells assessed as induction of PARP1 degradation incubated for 24 hrs by Western blot analysis relative to control; format: cell-based
Target sequence in this assay (P09874 2-1014 limits assumed): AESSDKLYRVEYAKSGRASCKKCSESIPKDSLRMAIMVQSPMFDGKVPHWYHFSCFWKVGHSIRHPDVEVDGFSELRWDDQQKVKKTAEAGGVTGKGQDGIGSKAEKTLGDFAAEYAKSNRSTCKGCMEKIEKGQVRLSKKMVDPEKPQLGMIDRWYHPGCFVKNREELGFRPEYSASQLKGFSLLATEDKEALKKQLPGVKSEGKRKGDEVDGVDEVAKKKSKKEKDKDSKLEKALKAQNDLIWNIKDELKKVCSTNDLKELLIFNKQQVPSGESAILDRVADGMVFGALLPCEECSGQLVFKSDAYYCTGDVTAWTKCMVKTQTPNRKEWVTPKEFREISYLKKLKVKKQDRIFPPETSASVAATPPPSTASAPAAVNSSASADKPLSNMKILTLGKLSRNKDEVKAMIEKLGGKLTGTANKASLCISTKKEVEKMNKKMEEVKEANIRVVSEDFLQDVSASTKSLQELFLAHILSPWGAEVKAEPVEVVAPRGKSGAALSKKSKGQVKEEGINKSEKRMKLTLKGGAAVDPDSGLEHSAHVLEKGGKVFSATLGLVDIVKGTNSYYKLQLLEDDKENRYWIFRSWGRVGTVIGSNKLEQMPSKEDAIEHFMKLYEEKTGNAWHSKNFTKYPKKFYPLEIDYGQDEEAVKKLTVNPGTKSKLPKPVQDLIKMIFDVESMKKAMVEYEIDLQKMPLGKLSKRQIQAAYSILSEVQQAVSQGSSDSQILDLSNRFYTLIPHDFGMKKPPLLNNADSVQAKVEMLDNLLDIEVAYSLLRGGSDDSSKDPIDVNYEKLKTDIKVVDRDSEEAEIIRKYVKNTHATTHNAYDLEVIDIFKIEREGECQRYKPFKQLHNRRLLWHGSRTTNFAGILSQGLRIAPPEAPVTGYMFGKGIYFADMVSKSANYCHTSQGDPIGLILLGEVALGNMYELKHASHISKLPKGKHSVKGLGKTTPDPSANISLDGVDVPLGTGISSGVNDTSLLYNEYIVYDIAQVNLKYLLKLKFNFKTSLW
Target sequence in this assay (Q96SW2 whole entry partner): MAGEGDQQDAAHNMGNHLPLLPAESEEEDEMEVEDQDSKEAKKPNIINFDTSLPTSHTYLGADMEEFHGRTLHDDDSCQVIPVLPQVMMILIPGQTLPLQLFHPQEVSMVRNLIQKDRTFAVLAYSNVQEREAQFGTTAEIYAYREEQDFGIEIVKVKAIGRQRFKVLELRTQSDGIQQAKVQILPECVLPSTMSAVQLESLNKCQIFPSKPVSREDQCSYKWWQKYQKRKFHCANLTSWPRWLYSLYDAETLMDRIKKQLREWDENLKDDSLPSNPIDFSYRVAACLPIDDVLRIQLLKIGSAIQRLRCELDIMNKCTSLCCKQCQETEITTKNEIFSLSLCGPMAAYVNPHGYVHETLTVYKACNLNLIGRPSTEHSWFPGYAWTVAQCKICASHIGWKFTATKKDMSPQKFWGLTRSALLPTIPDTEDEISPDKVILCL

PANC-1 [2] = assay: Induction of cell cycle arrest in human PANC-1 cells assessed as decrease in cyclin D1 level at 2 uM incubated for 24 hrs in presence of JQ1 by […]; format: functional
PANC-1 [3] = assay: Induction of apoptosis in human PANC-1 cells assessed as increase in Bax level at 2 uM incubated for 48 hrs in presence of JQ1 by Western blot analysis; format: functional, cell-based
PANC-1 [4] = assay: Induction of cell cycle arrest in human PANC-1 cells assessed as accumulation at G2/M phase at 2 uM incubated for 24 hrs in presence of JQ1 by PI staining based flow cytometry relative to control; format: functional
[5] = target: T1, Protein cereblon/Poly [ADP-ribose] polymerase 1; assay: PROTAC activity at CRBN/PARP1 in human PANC-1 cells assessed as induction of PARP1 degradation incubated for 24 hrs by Western blot analysis; format: cell-based
PANC-1 [6] = assay: Anti-invasive activity in human PANC-1 cells assessed as increase in invasion inhibition at 2 uM in presence of JQ1 incubated for 48 hrs by Matrigel assay relative to combination of OL/JQ1; format: functional; set-up: scale not given: the % may be the effect or the level left
PANC-1 [7] = assay: Induction of cell cycle arrest in human PANC-1 cells assessed as accumulation at G1 phase at 0.5 uM incubated for 24 hrs by PI staining based flow cytometry (reference value: 51.70 %); format: functional
[8] = Toxicity in BALB/c mouse xenografted with human PANC-1 cells assessed as pathological changes in kidney at 20 mg/kg, ip for 4 weeks administered for 5 days consecutively and 2 days without treatment on every week in presence of OL by H and E staining based analysis; format: organism-based; settings: in vivo, 672 h
[9] = Toxicity in BALB/c mouse xenografted with human PANC-1 cells assessed as body weight loss at 20 mg/kg, ip for 4 weeks administered for 5 days consecutively and 2 days without treatment on every week in presence of OL; format: organism-based; settings: in vivo, 672 h
PANC-1 [10] = assay: Antitumor activity against human PANC-1 cells xenografted in BALB/c mouse assessed as inhibition of tumor volume at 20 mg/kg, ip for 4 weeks administered for 5 days consecutively and 2 days without treatment on every week in presence of OL; format: functional, organism-based
[11] = Toxicity in BALB/c mouse xenografted with human PANC-1 cells assessed as animal mortality at 20 mg/kg, ip for 4 weeks administered for 5 days consecutively and 2 days without treatment on every week; format: organism-based; settings: in vivo, 672 h
PANC-1 [12] = assay: Induction of cell cycle arrest in human PANC-1 cells assessed as accumulation at G1/S phase at 0.12 to 2 uM incubated for 24 hrs by PI staining based flow cytometry; format: functional; settings: dose 0.12-2 µM
PANC-1 [13] = assay: Induction of DNA damage in human PANC-1 cells assessed as decrease in RAD51 level at 1 uM in presence of OL by Western blot analysis; format: functional, cell-based
PANC-1 [14] = assay: Induction of apoptosis in human PANC-1 cells assessed as late apoptotic cells at 1 uM incubated for 48 hrs in presence of OL by Annexin V-FITC/PI staining based flow cytometry (reference value: 3.87 %); format: functional
PANC-1 [15] = assay: Induction of cell cycle arrest in human PANC-1 cells assessed as accumulation at G2/M phase at 1 uM incubated for 24 hrs in presence of OL by PI staining based flow cytometry; format: functional
PANC-1 [16] = assay: Induction of apoptosis in human PANC-1 cells assessed as early apoptotic cells at 1 uM incubated for 48 hrs in presence of OL by Annexin V-FITC/PI staining based flow cytometry (reference value: 1.41 %); format: functional
PANC-1 [17] = assay: Induction of cell cycle arrest in human PANC-1 cells assessed as accumulation at G1 phase at 1 uM incubated for 24 hrs by PI staining based flow cytometry (reference value: 51.70 %); format: functional
PANC-1 [18] = assay: Induction of apoptosis in human PANC-1 cells assessed as late apoptotic cells at 0.5 uM incubated for 48 hrs by Annexin V-FITC/PI staining based flow cytometry (reference value: 3.87 %); format: functional
PANC-1 [19] = assay: Induction of apoptosis in human PANC-1 cells assessed as early apoptotic cells at 1 uM incubated for 48 hrs by Annexin V-FITC/PI staining based flow cytometry (reference value: 1.41 %); format: functional
PANC-1 [20] = assay: Induction of cell cycle arrest in human PANC-1 cells assessed as accumulation at S phase at 1 uM incubated for 24 hrs in presence of OL by PI staining based flow cytometry (reference value: 38.94 %); format: functional
PANC-1 [21] = assay: Induction of apoptosis in human PANC-1 cells assessed as necrotic cells at 1 uM incubated for 48 hrs by Annexin V-FITC/PI staining based flow cytometry (reference value: 3.09 %); format: functional
PANC-1 [22] = assay: Induction of apoptosis in human PANC-1 cells assessed as viable cells at 1 uM incubated for 48 hrs in presence of OL by Annexin V-FITC/PI staining based flow cytometry (reference value: 91.64 %); format: functional; settings: read-out: Activity
[23] = Toxicity in BALB/c mouse xenografted with human PANC-1 cells assessed as pathological changes in lung at 20 mg/kg, ip for 4 weeks administered for 5 days consecutively and 2 days without treatment on every week in presence of OL by H and E staining based analysis; format: organism-based; settings: in vivo, 672 h
PANC-1 [24] = assay: Induction of cell cycle arrest in human PANC-1 cells assessed as accumulation at G2 phase at 1 uM incubated for 24 hrs by PI staining based flow cytometry (reference value: 9.36 %); format: functional
[25] = Toxicity in BALB/c mouse xenografted with human PANC-1 cells assessed as drug tolerance at 20 mg/kg, ip for 4 weeks administered for 5 days consecutively and 2 days without treatment on every week; format: organism-based; settings: in vivo, 672 h
[26] = Toxicity in BALB/c mouse xenografted with human PANC-1 cells assessed as pathological changes in spleen at 20 mg/kg, ip for 4 weeks administered for 5 days consecutively and 2 days without treatment on every week in presence of OL by H and E staining based analysis; format: organism-based; settings: in vivo, 672 h
PANC-1 [27] = assay: Antitumor activity against human PANC-1 cells xenografted in BALB/c mouse assessed as reduction in tumor growth at 20 mg/kg, ip for 4 weeks administered for 5 days consecutively and 2 days without treatment on every week; format: functional, organism-based
PANC-1 [28] = assay: Induction of cell cycle arrest in human PANC-1 cells assessed as accumulation at S phase at 1 uM incubated for 24 hrs by PI staining based flow cytometry (reference value: 38.94 %); format: functional
PANC-1 [29] = assay: Induction of apoptosis in human PANC-1 cells assessed as early apoptotic cells at 0.5 uM incubated for 48 hrs by Annexin V-FITC/PI staining based flow cytometry (reference value: 1.41 %); format: functional
PANC-1 [30] = assay: Induction of cell cycle arrest in human PANC-1 cells assessed as accumulation at G1 phase at 0.25 uM incubated for 24 hrs by PI staining based flow cytometry (reference value: 51.70 %); format: functional
PANC-1 [31] = assay: Induction of cell cycle arrest in human PANC-1 cells assessed as accumulation at G1 phase at 1 uM incubated for 24 hrs in presence of OL by PI staining based flow cytometry (reference value: 51.70 %); format: functional

## O=C1CCC(N2C(=O)c3cccc(NC(=O)CNCCCCCCCCCCC(=O)N4CCN(C(=O)c5cc(Cc6n[nH]c(=O)c7ccccc67)ccc5F)CC4)c3C2=O)C(=O)N1 (configuration not stated)
[1]
  Emax: > 92%
PANC-1 [2]
  Activity: Active
PANC-1 [3]
  Activity: Active
PANC-1 [4]
  Activity: 8.3%
[5]
  DC50: 2.55 nM
[5]; dose <= 10.0 µM
  Activity: Dose-dependent-effect
PANC-1 [6]
  Activity: ~11%

## Cc1sc2c(c1C)C(c1ccc(Cl)cc1)=N[C@@H](CC(=O)OC(C)(C)C)c1nnc(C)n1-2
PANC-1 [7]
  Activity: 53.78%
[8]
  Activity: Non-toxic
[9]
  Activity: Toxic
PANC-1 [10]
  inhibition: Active
[11]
  Activity: Non-toxic
PANC-1 [12]
  Activity: Active
PANC-1 [13]
  Activity: Active
PANC-1 [14]
  Activity: 21.52%
PANC-1 [15]
  Activity: Active; Only A Slight Increase Observed
PANC-1 [16]
  Activity: 5.44%
PANC-1 [17]
  Activity: 58.49%
PANC-1 [18]
  Activity: 10.08%
PANC-1 [19]
  Activity: 6.72%
PANC-1 [20]
  Activity: 25.85%
PANC-1 [21]
  Activity: 4.54%
PANC-1 [22]
  viability at 1 µM: 68.3%
[23]
  Activity: Non-toxic
PANC-1 [24]
  Activity: 10.75%
[25]
  Activity: Non-toxic
[26]
  Activity: Non-toxic
PANC-1 [27]
  Activity: Active
PANC-1 [28]
  Activity: 26.24%
PANC-1 [29]
  Activity: 3.52%
PANC-1 [30]
  Activity: 48.96%
PANC-1 [31]
  Activity: 58.42%
